Test results published in ChEMBL document CHEMBL4373715, “Discovery and Biological Evaluations of Halogenated 2,4-Diphenyl Indeno[1,2-b]pyridinol Derivatives as Potent Topoisomerase IIα-Targeted Chemotherapeutic Agents for Breast Cancer” (J Med Chem, 2019).
Where a name gives a salt, the structure may show the parent alone. Calls of active or inactive are those of the source. No cut-off for these calls is given here.

What was measured:
Calf thymus DNA = assay: Inhibition of EtBr binding to calf thymus DNA measured after 30 mins by fluorescence assay; assay type: nucleic-acid assay; settings: Bos taurus
HCC70 = assay: Antiproliferative activity against human HCC70 cells measured after 72 hrs by Ez-cytox assay; assay type: functional, cell-based; settings: HCC70, 72 h
HeLa = assay: Antiproliferative activity against human HeLa cells measured after 72 hrs by EZ-Cytox assay; assay type: functional, cell-based
DU-145 = assay: Antiproliferative activity against human DU145 cells measured after 72 hrs by EZ-Cytox assay; assay type: functional, cell-based; settings: DU-145, 72 h
HCT-15 = assay: Antiproliferative activity against human HCT15 cells measured after 72 hrs by EZ-Cytox assay; assay type: functional, cell-based; settings: HCT-15, 72 h
T47D [1] = assay: Antiproliferative activity against human T47D cells measured after 72 hrs by EZ-Cytox assay; assay type: functional, cell-based
MDA-MB-436 = assay: Antiproliferative activity against human MDA-MB-436 cells measured after 72 hrs by Ez-cytox assay; assay type: functional, cell-based; settings: MDA-MB-436, 72 h
MDA-MB-231 = assay: Antiproliferative activity against human MDA-MB-231 cells measured after 72 hrs by Ez-cytox assay; assay type: functional, cell-based; settings: MDA-MB-231, 72 h
[2] = biological target: T1, DNA topoisomerase 1 (Homo sapiens) (UniProt P11387); assay: Inhibition of recombinant human topoisomerase 1-mediated relaxation of supercoiled pBR322 DNA at 20 uM measured after 30 mins by ethidium bromide staining based agarose gel electrophoresis relative to control
T1 sequence (whole entry): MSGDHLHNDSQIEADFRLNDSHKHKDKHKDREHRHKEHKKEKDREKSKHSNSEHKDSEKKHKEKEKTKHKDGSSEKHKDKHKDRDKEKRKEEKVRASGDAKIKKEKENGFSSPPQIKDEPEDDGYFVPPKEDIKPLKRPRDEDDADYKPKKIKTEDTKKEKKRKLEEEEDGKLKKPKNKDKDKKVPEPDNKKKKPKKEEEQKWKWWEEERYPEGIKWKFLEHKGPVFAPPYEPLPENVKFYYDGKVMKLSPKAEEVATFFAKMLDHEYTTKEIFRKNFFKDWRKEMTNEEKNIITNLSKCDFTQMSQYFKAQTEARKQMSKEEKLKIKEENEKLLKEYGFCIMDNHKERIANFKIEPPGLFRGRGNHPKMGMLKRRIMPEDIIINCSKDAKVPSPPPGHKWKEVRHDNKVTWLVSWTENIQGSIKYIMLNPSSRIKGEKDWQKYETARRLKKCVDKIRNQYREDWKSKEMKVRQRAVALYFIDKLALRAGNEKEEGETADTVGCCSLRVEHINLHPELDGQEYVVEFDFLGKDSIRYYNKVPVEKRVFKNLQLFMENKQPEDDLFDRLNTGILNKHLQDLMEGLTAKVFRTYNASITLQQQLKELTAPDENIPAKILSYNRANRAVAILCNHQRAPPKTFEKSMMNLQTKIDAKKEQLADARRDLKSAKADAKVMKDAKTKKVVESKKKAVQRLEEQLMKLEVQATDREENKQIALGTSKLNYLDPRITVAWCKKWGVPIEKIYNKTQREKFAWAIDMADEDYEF

[3] = biological target: DNA topoisomerase 2-alpha (Homo sapiens) (UniProt P11388); assay: Inhibition of recombinant human topoisomerase 2alpha-mediated relaxation of supercoiled pBR322 DNA at 100 uM measured after 30 mins by ethidium bromide staining based agarose gel electrophoresis relative to control
DNA topoisomerase 2-alpha (Homo sapiens), sequence (P11388 whole entry): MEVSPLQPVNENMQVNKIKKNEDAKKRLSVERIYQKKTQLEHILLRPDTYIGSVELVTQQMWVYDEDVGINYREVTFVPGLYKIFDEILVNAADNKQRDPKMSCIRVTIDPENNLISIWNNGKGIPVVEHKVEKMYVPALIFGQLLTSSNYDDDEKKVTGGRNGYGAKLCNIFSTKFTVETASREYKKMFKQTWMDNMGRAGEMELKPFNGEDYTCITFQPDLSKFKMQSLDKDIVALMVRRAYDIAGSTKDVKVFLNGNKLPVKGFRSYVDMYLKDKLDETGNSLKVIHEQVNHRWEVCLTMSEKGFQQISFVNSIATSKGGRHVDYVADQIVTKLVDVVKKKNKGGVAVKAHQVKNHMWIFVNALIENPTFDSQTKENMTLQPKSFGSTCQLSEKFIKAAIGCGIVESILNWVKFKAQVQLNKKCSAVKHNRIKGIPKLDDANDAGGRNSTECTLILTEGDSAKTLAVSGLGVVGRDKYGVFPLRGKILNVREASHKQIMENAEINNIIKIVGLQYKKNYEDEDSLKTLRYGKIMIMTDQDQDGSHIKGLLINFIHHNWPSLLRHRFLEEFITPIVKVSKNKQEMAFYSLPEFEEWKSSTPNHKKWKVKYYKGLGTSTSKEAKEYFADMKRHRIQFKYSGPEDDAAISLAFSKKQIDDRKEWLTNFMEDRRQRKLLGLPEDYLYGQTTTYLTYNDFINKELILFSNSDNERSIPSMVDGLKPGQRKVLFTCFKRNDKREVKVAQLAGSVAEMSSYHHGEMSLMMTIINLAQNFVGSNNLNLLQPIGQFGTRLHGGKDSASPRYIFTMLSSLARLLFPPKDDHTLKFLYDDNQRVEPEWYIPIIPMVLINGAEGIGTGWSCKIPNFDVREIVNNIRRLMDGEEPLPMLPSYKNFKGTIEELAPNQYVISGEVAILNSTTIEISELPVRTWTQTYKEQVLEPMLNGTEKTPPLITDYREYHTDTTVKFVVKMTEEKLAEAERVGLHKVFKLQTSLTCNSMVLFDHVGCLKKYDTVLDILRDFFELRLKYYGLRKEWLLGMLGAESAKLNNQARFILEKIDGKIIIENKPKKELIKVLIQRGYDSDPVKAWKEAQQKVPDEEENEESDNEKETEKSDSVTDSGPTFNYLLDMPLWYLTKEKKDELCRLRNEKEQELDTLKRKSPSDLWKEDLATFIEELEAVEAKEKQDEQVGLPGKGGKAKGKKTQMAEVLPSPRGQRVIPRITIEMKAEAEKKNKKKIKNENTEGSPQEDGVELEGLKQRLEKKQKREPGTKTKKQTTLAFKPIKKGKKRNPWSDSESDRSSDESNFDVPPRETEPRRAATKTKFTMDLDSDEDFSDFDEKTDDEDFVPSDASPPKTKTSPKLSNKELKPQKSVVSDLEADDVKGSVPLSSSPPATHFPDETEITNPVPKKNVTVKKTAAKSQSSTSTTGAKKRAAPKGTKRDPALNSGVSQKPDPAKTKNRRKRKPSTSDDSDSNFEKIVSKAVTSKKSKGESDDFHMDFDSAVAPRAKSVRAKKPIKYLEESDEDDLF

[4] = biological target: DNA topoisomerase 2-alpha (Homo sapiens) (UniProt P11388); assay: Inhibition of recombinant human topoisomerase 2alpha-mediated relaxation of supercoiled pBR322 DNA at 20 uM measured after 30 mins by ethidium bromide staining based agarose gel electrophoresis relative to control
[5] = biological target: T1, DNA topoisomerase 1 (Homo sapiens); assay: Inhibition of recombinant human topoisomerase 1-mediated relaxation of supercoiled pBR322 DNA at 100 uM measured after 30 mins by ethidium bromide staining based agarose gel electrophoresis relative to control
[6] = biological target: DNA topoisomerase 2-alpha (Homo sapiens) (UniProt P11388); assay: Poison activity at topoisomerase-2 alpha in human T47D cells assessed as stabilization of enzyme-DNA cleavage complex by measuring reduction in topo-2alpha level at 50 uM measured after 2 hrs by Western blot analysis; assay type: cell-based
T47D [7] = assay: Induction of DNA damage in human T47D cells at 5 to 10 uM measured after 24 hrs by comet assay; assay type: functional, cell-based

COc1cc(NS(C)(=O)=O)ccc1Nc1c2ccccc2nc2ccccc12
inhibition (Calf thymus DNA): Dose-dependent effect

COc1cccc2c1C(=O)c1c(O)c3c(c(O)c1C2=O)C[C@@](O)(C(=O)CO)C[C@@H]3O[C@H]1C[C@H](N)[C@H](O)[C@H](C)O1 [DOXORUBICIN HYDROCHLORIDE]
IC50 (HCC70; read-out: IC50): 1450 nM | IC50 (HeLa): 800 to 4590 nM | IC50 (DU-145): 870 to 2960 nM | IC50 (HCT-15): 740 to 2020 nM | IC50 (T47D [1]): 340 to 1500 nM | IC50 (MDA-MB-436): 2030 nM | IC50 (MDA-MB-231): 5180 nM

Oc1cccc(-c2cc(-c3ccccc3Cl)c3c(n2)-c2ccc(O)cc2C3)c1
inhibition [2]: 6.3% | inhibition [3]: 91.3% | IC50 (HeLa): 6480 nM | IC50 (DU-145): 2350 nM | IC50 (HCT-15): 3820 nM | IC50 (T47D [1]): 2840 nM | inhibition [4]: 20% | inhibition [5]: 77.4%

COc1cc([C@@H]2c3cc4c(cc3[C@@H](O[C@@H]3O[C@@H]5CO[C@@H](C)O[C@H]5[C@H](O)[C@H]3O)[C@H]3COC(=O)[C@H]23)OCO4)cc(OC)c1O [ETOPOSIDE]
Activity [6]: Active | IC50 (HCC70; read-out: IC50): > 50000 nM | Activity (T47D [7]): Active | IC50 (HeLa): 4130 to 9750 nM | IC50 (DU-145): 1150 to 4490 nM | IC50 (HCT-15): 1270 to 6970 nM | IC50 (T47D [1]): 1640 to 5540 nM | IC50 (MDA-MB-436): 39400 nM | IC50 (MDA-MB-231): > 50000 nM

CC[C@@]1(O)C(=O)OCc2c1cc1n(c2=O)Cc2cc3ccccc3nc2-1 [CAMPTOTHECIN]
IC50 (HCC70): 44 nM | IC50 (HeLa): 500 to 1390 nM | IC50 (DU-145): 50 to 810 nM | IC50 (HCT-15): 49 to 350 nM | IC50 (T47D [1]): 250 to 1980 nM | IC50 (MDA-MB-436): 31900 nM | IC50 (MDA-MB-231): 24000 nM

Oc1ccc2c(c1)-c1nc(-c3ccccc3O)cc(-c3ccccc3Cl)c1C2
inhibition [2]: 14.8% | inhibition [3]: 74.1% | IC50 (HeLa): > 50000 nM | IC50 (DU-145): 3990 nM | IC50 (HCT-15): 7980 nM | IC50 (T47D [1]): 3280 nM | inhibition [4]: 38.2% | inhibition [5]: 59.1%

Oc1cccc(-c2cc(-c3ccccc3C(F)(F)F)nc3c2Cc2c(O)cccc2-3)c1
inhibition [2]: 0% | inhibition [3]: 89.5% | IC50 (HeLa): 3790 nM | IC50 (DU-145): 1800 nM | IC50 (HCT-15): 3390 nM | IC50 (T47D [1]): 1460 nM | inhibition [4]: 2.1% | inhibition [5]: 65.7%

Oc1ccc(-c2cc(-c3ccc(C(F)(F)F)cc3)nc3c2Cc2ccc(O)cc2-3)cc1
inhibition [2]: 0% | inhibition [3]: 83.1% | IC50 (HeLa): 5510 nM | IC50 (DU-145): 2980 nM | IC50 (HCT-15): 5030 nM | IC50 (T47D [1]): 1360 nM | inhibition [4]: 0.5% | inhibition [5]: 100%
